According to US12077503B2, “Substituted cyclic amides and their use as herbicides” (FMC CORPORATION, priority 2015, dated 2024):

Key:
Type in all cases: in vivo
[1] = system: corn (Zea mays); assay: Test G Post-Emergence Protocol; conditions: Zea mays, post-emergence, 312 h, read-out: Corn damage rating; for plant injury at 15.625 g/ha: 15.625 g ai/ha, evaluated after 13 days (100=total damage to plant; 0=no damage to plant); for plant injury at 62.5 g/ha: 62.5 g ai/ha; for plant injury at 62.5 g/ha / plant injury at 250 g/ha: evaluated after 13 days, 100=total damage to plant, 0=no damage to plant; for plant injury at 250 g/ha: 250 g ai/ha
How it was run: (§1)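 Values are percent visual injury at 13 days after treatment (0 none, 100 total). Treatment was a post-emergence spray at 15.625, 62.5 or 250 g/ha on 8-day-old pot plants kept at 24/16 °C.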

[2] = system: redroot pigweed (Amaranthus retroflexus); assay: Test G Post-Emergence Protocol; conditions: Amaranthus retroflexus, post-emergence, 312 h, read-out: Pigweed, Redroot damage rating; for pest or weed control at 15.625 g/ha: 15.625 g ai/ha, evaluated after 13 days (100=total damage to plant; 0=no damage to plant); for pest or weed control at 62.5 g/ha: 62.5 g ai/ha; for pest or weed control at 62.5 g/ha / pest or weed control at 250 g/ha: evaluated after 13 days, 100=total damage to plant, 0=no damage to plant; for pest or weed control at 250 g/ha: 250 g ai/ha
How it was run: as §1

[3] = system: giant foxtail (Setaria faberi); assay: Test G Post-Emergence Protocol; conditions: Setaria faberi, post-emergence, 312 h, read-out: Foxtail, Giant damage rating; for pest or weed control at 15.625 g/ha: 15.625 g ai/ha, evaluated after 13 days (100=total damage to plant; 0=no damage to plant); for pest or weed control at 62.5 g/ha: 62.5 g ai/ha; for pest or weed control at 62.5 g/ha / pest or weed control at 250 g/ha: evaluated after 13 days, 100=total damage to plant, 0=no damage to plant; for pest or weed control at 250 g/ha: 250 g ai/ha
How it was run: as §1

[4] = system: barnyardgrass (Echinochloa crus-galli); assay: Test G Post-Emergence Protocol; conditions: Echinochloa crus-galli, post-emergence, 312 h, read-out: Barnyardgrass damage rating; for pest or weed control at 15.625 g/ha: 15.625 g ai/ha, evaluated after 13 days (100=total damage to plant; 0=no damage to plant); for pest or weed control at 62.5 g/ha: 62.5 g ai/ha; for pest or weed control at 62.5 g/ha / pest or weed control at 250 g/ha: evaluated after 13 days, 100=total damage to plant, 0=no damage to plant; for pest or weed control at 250 g/ha: 250 g ai/ha
How it was run: as §1

[5] = system: ivy-leaved morning glory (Ipomoea hederacea); assay: Test G Post-Emergence Protocol; conditions: Ipomoea, post-emergence, 312 h, read-out: Morningglory, Ivy-leaved damage rating; for pest or weed control at 15.625 g/ha: 15.625 g ai/ha, evaluated after 13 days (100=total damage to plant; 0=no damage to plant); for pest or weed control at 62.5 g/ha: 62.5 g ai/ha; for pest or weed control at 62.5 g/ha / pest or weed control at 250 g/ha: evaluated after 13 days, 100=total damage to plant, 0=no damage to plant; for pest or weed control at 250 g/ha: 250 g ai/ha
How it was run: as §1

[6] = system: velvetleaf (Abutilon theophrasti); assay: Test G Post-Emergence Protocol; conditions: Abutilon theophrasti, post-emergence, 312 h, read-out: Velvetleaf damage rating; for pest or weed control at 15.625 g/ha: 15.625 g ai/ha, evaluated after 13 days (100=total damage to plant; 0=no damage to plant); for pest or weed control at 62.5 g/ha: 62.5 g ai/ha; for pest or weed control at 62.5 g/ha / pest or weed control at 250 g/ha: evaluated after 13 days, 100=total damage to plant, 0=no damage to plant; for pest or weed control at 250 g/ha: 250 g ai/ha
How it was run: as §1

[7] = system: corn (Zea mays); assay: Test G Pre-Emergence Protocol; conditions: Zea mays, pre-emergence, 312 h, evaluated after 13 days; for plant injury at 15.625 g/ha: 15.625 g ai/ha; for plant injury at 15.625 g/ha / plant injury at 250 g/ha: read-out: Corn damage rating (100=total damage to plant; 0=no damage to plant); for plant injury at 62.5 g/ha: 62.5 g ai/ha, 100=total damage to plant, 0=no damage to plant, read-out: Corn damage rating; for plant injury at 250 g/ha: 250 g ai/ha
How it was run: (§2)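 Test compound in 0.5% Tween 20 acetone/water (50:50) was applied at three rates (15.625, 62.5, 250 g/ha) to soil sown one day earlier. After 13 days plants were scored for injury, where 0 means unaffected and 100 means completely damaged.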

[8] = system: redroot pigweed (Amaranthus retroflexus); assay: Test G Pre-Emergence Protocol; conditions: Amaranthus retroflexus, pre-emergence, 312 h, evaluated after 13 days; for pest or weed control at 15.625 g/ha: 15.625 g ai/ha; for pest or weed control at 15.625 g/ha / pest or weed control at 250 g/ha: read-out: Pigweed, Redroot damage rating (100=total damage to plant; 0=no damage to plant); for pest or weed control at 62.5 g/ha: 62.5 g ai/ha, 100=total damage to plant, 0=no damage to plant, read-out: Pigweed, Redroot damage rating; for pest or weed control at 250 g/ha: 250 g ai/ha
How it was run: as §2

[9] = system: giant foxtail (Setaria faberi); assay: Test G Pre-Emergence Protocol; conditions: Setaria faberi, pre-emergence, 312 h, evaluated after 13 days; for pest or weed control at 15.625 g/ha: 15.625 g ai/ha; for pest or weed control at 15.625 g/ha / pest or weed control at 250 g/ha: read-out: Foxtail, Giant damage rating (100=total damage to plant; 0=no damage to plant); for pest or weed control at 62.5 g/ha: 62.5 g ai/ha, 100=total damage to plant, 0=no damage to plant, read-out: Foxtail, Giant damage rating; for pest or weed control at 250 g/ha: 250 g ai/ha
How it was run: as §2

[10] = system: barnyardgrass (Echinochloa crus-galli); assay: Test G Pre-Emergence Protocol; conditions: Echinochloa crus-galli, pre-emergence, 312 h, evaluated after 13 days; for pest or weed control at 15.625 g/ha: 15.625 g ai/ha; for pest or weed control at 15.625 g/ha / pest or weed control at 250 g/ha: read-out: Barnyardgrass damage rating (100=total damage to plant; 0=no damage to plant); for pest or weed control at 62.5 g/ha: 62.5 g ai/ha, 100=total damage to plant, 0=no damage to plant, read-out: Barnyardgrass damage rating; for pest or weed control at 250 g/ha: 250 g ai/ha
How it was run: as §2

[11] = system: ivy-leaved morning glory (Ipomoea hederacea); assay: Test G Pre-Emergence Protocol; conditions: Ipomoea, pre-emergence, 312 h, evaluated after 13 days; for pest or weed control at 15.625 g/ha: 15.625 g ai/ha; for pest or weed control at 15.625 g/ha / pest or weed control at 250 g/ha: read-out: Morningglory, Ivy-leaved damage rating (100=total damage to plant; 0=no damage to plant); for pest or weed control at 62.5 g/ha: 62.5 g ai/ha, 100=total damage to plant, 0=no damage to plant, read-out: Morningglory, Ivy-leaved damage rating; for pest or weed control at 250 g/ha: 250 g ai/ha
How it was run: as §2

[12] = system: velvetleaf (Abutilon theophrasti); assay: Test G Pre-Emergence Protocol; conditions: Abutilon theophrasti, pre-emergence, 312 h, evaluated after 13 days; for pest or weed control at 15.625 g/ha: 15.625 g ai/ha; for pest or weed control at 15.625 g/ha / pest or weed control at 250 g/ha: read-out: Velvetleaf damage rating (100=total damage to plant; 0=no damage to plant); for pest or weed control at 62.5 g/ha: 62.5 g ai/ha, 100=total damage to plant, 0=no damage to plant, read-out: Velvetleaf damage rating; for pest or weed control at 250 g/ha: 250 g ai/ha
How it was run: as §2

| Structure (SMILES) | plant injury at 15.625 g/ha [1] [%] | plant injury at 62.5 g/ha [1] [%] | plant injury at 250 g/ha [1] [%] | pest or weed control at 15.625 g/ha [2] [%] | pest or weed control at 62.5 g/ha [2] [%] | pest or weed control at 250 g/ha [2] [%] | pest or weed control at 15.625 g/ha [3] [%] | pest or weed control at 62.5 g/ha [3] [%] | pest or weed control at 250 g/ha [3] [%] | pest or weed control at 15.625 g/ha [4] [%] | pest or weed control at 62.5 g/ha [4] [%] | pest or weed control at 250 g/ha [4] [%] | pest or weed control at 15.625 g/ha [5] [%] | pest or weed control at 62.5 g/ha [5] [%] | pest or weed control at 250 g/ha [5] [%] | pest or weed control at 15.625 g/ha [6] [%] | pest or weed control at 62.5 g/ha [6] [%] | pest or weed control at 250 g/ha [6] [%] | plant injury at 15.625 g/ha [7] [%] | plant injury at 62.5 g/ha [7] [%] | other results |
| --- | --- | --- | --- | --- | --- | --- | --- | --- | --- | --- | --- | --- | --- | --- | --- | --- | --- | --- | --- | --- | --- |
| CN1CCC(NC(=O)[C@H]2C(=O)N(C)C[C@@H]2c2ccc(C(F)(F)F)cc2)C1=O (mixture of isomers) [Compound 1673] | 0 | 0 | 0 | 0 | 0 | 0 | 0 | 0 | 10 | 0 | 0 | 0 | 0 | 0 | 0 | 0 | 0 | 0 | 0 | 0 | plant injury at 250 g/ha [7]: 0%; pest or weed control at 15.625 g/ha [8]: 0%; pest or weed control at 62.5 g/ha [8]: 0%; pest or weed control at 250 g/ha [8]: 0%; pest or weed control at 15.625 g/ha [9]: 0%; pest or weed control at 62.5 g/ha [9]: 0%; pest or weed control at 250 g/ha [9]: 0%; pest or weed control at 15.625 g/ha [10]: 0%; pest or weed control at 62.5 g/ha [10]: 0%; pest or weed control at 250 g/ha [10]: 0%; pest or weed control at 15.625 g/ha [11]: 0%; pest or weed control at 62.5 g/ha [11]: 0%; pest or weed control at 250 g/ha [11]: 0%; pest or weed control at 15.625 g/ha [12]: 0%; pest or weed control at 62.5 g/ha [12]: 0%; pest or weed control at 250 g/ha [12]: 0% |
| CN1C[C@H](c2ccc(C(F)(F)F)cc2)[C@@H](C(=O)Nc2cnccc2[S+](C)[O-])C1=O (mixture of isomers) [Compound 1751] | 0 | 0 | 0 | 0 | 0 | 10 | 0 | 0 | 10 | 0 | 0 | 0 | 0 | 0 | 0 | 0 | 0 | 10 | 0 | 0 | plant injury at 250 g/ha [7]: 0%; pest or weed control at 15.625 g/ha [8]: 0%; pest or weed control at 62.5 g/ha [8]: 0%; pest or weed control at 250 g/ha [8]: 10%; pest or weed control at 15.625 g/ha [9]: 0%; pest or weed control at 62.5 g/ha [9]: 0%; pest or weed control at 250 g/ha [9]: 10%; pest or weed control at 15.625 g/ha [10]: 0%; pest or weed control at 62.5 g/ha [10]: 0%; pest or weed control at 250 g/ha [10]: 0%; pest or weed control at 15.625 g/ha [11]: 0%; pest or weed control at 62.5 g/ha [11]: 0%; pest or weed control at 250 g/ha [11]: 0%; pest or weed control at 15.625 g/ha [12]: 0%; pest or weed control at 62.5 g/ha [12]: 0%; pest or weed control at 250 g/ha [12]: 0% |
